Assay results as given in US20260294925A1, “CELL PROLIFERATION MODULATORS AND USES THEREOF” (Kumquat Biosciences Inc., priority 2023, published 2026).

Legend:
[1] = Toxicity / body weight observation in Ba/F3 allograft mice; format: in vivo, mouse; conditions: Ba/F3 T315I allograft NOD/SCID mice, oral gavage, single agents and combinations
From the text: Mice were maintained under specific pathogen-free conditions, and food and water were provided ad libitum. A mouse Ba/F3 cell line that expresses a p210 […] fusion and T315I mutation was implanted subcutaneously (1×10^6 cells per mouse) into the right flank of female 6- to 8-week-old NOD/SCID mice. Mice were monitored daily, weighed up to three times weekly, and caliper measurements began when tumors became visible. Animals were randomly assigned to treatment groups as indicated in FIG. 2 by an algorithm that assigns animals to groups to achieve best case distributions of mean tumor size with lowest possible standard deviation. Tumor volume was calculated by measuring two perpendicular diameters using the following formula: (L×w^2)/2, in which L and w refer to the length and width of the tumor diameter, respectively. When tumors reached an average size of ~100 mm^3, mice were randomized and treated with vehicle, a SOS1 inhibitor of the present disclosure (Compound A), asciminib, ponatinib, Compound A and asciminib, or Compound A and ponatinib by oral gavage at the indicated dose and schedule.

KCL22-r xenograft = assay: KCL22-r (dasatinib-refractory) xenograft study (FIG. 7); format: in vivo, mouse; conditions: dasatinib monotherapy
Description: Mice were maintained under specific pathogen-free conditions, and food and water were provided ad libitum. Female 6- to 8-week-old athymic BALB/c nude (NCr) nu/nu mice were used to inoculate Ph+ CML cell lines. For example, KCL22-s cells (5×10^6) were harvested on the day of use and injected in growth-factor-reduced Matrigel/PBS (50% final concentration in 100 μL). One flank was inoculated subcutaneously per mouse. Mice were monitored daily, weighed twice weekly, and caliper measurements began when tumors became visible. Animals were randomly assigned to treatment groups as indicated in FIG. 1 by an algorithm that assigns animals to groups to achieve best case distributions of mean tumor size with lowest possible standard deviation. Tumor volume was calculated by measuring two perpendicular diameters using the following formula: (L×w^2)/2, in which L and w refer to the length and width of the tumor diameter, respectively. When tumors reached an average size of 100 mm^3, mice were randomized and treated with vehicle (20% Dexolve) or indicated compounds using a daily or twice daily schedule by oral gavage. Results are expressed as mean and […]. […] Combination treatment with dasatinib renders more than 90% complete responses. […]

| Structure (SMILES) | toxicity or body weight loss [1] | response of KCL22-r model to dasatinib (KCL22-r xenograft) |
| --- | --- | --- |
| O=C(Nc1ccc(OC(F)(F)Cl)cc1)c1cnc(N2CC[C@@H](O)C2)c(-c2ccn[nH]2)c1 [asciminib] | No apparent toxicity or body weight loss was observed | – |
| Cc1nc(Nc2ncc(C(=O)Nc3c(C)cccc3Cl)s2)cc(N2CCN(CCO)CC2)n1 [dasatinib] | – | dasatinib-refractory tumor |
| Cc1ccc(C(=O)Nc2ccc(CN3CCN(C)CC3)c(C(F)(F)F)c2)cc1C#Cc1cnc2cccnn12 [ponatinib] | No apparent toxicity or body weight loss was observed | – |
